Assays:
α2AAR = biological target: T1, α2AAR (Homo sapiens, UniProt P08913); assay: α2AAR binding assay ([3H]-RX 821002 radioligand); conditions: [3H]-RX 821002 0.5 nM, HEK293 membranes; read-out: α2A affinity (Ki)
T1 construct: host or cells: HEK293 (membranes)
T1 sequence (P08913 1-465): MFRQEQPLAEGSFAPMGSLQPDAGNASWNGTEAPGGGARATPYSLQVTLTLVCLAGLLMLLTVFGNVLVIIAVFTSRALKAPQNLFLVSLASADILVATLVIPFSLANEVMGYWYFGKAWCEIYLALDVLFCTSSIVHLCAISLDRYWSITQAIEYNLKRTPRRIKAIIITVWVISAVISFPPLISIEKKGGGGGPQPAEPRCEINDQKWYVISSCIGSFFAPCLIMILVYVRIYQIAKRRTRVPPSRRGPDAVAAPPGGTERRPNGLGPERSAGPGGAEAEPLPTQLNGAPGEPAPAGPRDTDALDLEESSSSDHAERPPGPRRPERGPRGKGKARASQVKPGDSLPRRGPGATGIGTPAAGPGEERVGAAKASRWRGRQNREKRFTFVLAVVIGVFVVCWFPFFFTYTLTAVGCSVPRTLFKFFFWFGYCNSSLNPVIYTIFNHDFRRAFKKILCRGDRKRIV

[1] = biological target: T2, α2AAR (α2A-adrenergic receptor) (Homo sapiens, UniProt P08913); assay: α2AAR FLIPR assay (agonist activity); type: cell-based; conditions: FLIPR, α2AAR cell line hosted in HEK293 cells; read-out: α2A agonist activity (EC50)
T2 construct: expressed in transfected cells; host or cells: HEK293
T2 sequence (P08913 1-465): T1 sequence (P08913 1-465)
Method in brief: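 HEK293 cells expressing α2AAR loaded with Fluo-4 Direct plus probenecid for 50 min at 37° C and 10 min at room temperature, then treated with serially diluted compounds.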

SMILES	Ki (α2AAR)	EC50 [1]
COP(=O)(CC1CCOCC1)Nc1cccc(C(c2c[nH]cn2)c2cccc(C)c2C)c1 (stereo not shown) [compound 167]	0.01 to 0.05 µM	0.01 to 0.05 µM
Cc1cccc(C(Cc2ccc(C(=O)NC3CCOCC3)cc2)c2c[nH]cn2)c1C (stereo not shown) [compound 177]	0.01 to 0.05 µM	< 0.01 µM
Cc1cccc(C(c2cccc(NC(=O)N3CCCCC3)c2)c2c[nH]cn2)c1C (stereo not shown) [compound 180]	0.01 to 0.05 µM	0.01 to 0.05 µM
CNC(=O)c1ccc(CC(c2c[nH]cn2)c2cccc(C)c2C)cc1F (stereo not shown) [compound 192]	< 0.01 µM	0.01 to 0.05 µM
COC(=O)Nc1ccc(CC(c2c[nH]cn2)c2cccc(C)c2C)cc1 (stereo not shown) [compound 194]	< 0.01 µM	0.01 to 0.05 µM
CNc1ccc(CC(c2c[nH]cn2)c2cccc(C)c2C)cc1 (stereo not shown) [compound 203]	< 0.01 µM	0.05 to 0.25 µM
Cc1cccc(C(Cc2ccc(-c3nnn[nH]3)cc2)c2c[nH]cn2)c1C (stereo not shown) [compound 210]	0.01 to 0.05 µM	0.05 to 0.25 µM
Cc1cn(-c2ccc(CC(c3c[nH]cn3)c3cccc(C)c3C)cc2)nn1 (stereo not shown) [compound 211]	< 0.01 µM	0.01 to 0.05 µM
Cc1cccc(C(Cc2ccc(NC(=S)C3CCOCC3)cc2)c2c[nH]cn2)c1C (stereo not shown) [compound 212]	< 0.01 µM	0.01 to 0.05 µM
CC(=O)N(C)c1ccc(CC(c2c[nH]cn2)c2cccc(C)c2C)cc1 (stereo not shown) [compound 222]	0.01 to 0.05 µM	0.01 to 0.05 µM
Cc1cccc(C(Cc2ccc(O)c(O)c2)c2c[nH]cn2)c1C (stereo not shown) [compound 223]	< 0.01 µM	0.01 to 0.05 µM
COc1cc(CC(c2c[nH]cn2)c2cccc(C)c2C)cc(OC)c1OC (stereo not shown) [compound 226]	< 0.01 µM	< 0.01 µM
Cc1cccc(C(Cc2ccc(C(=O)NCC(=O)O)cc2)c2c[nH]cn2)c1C (stereo not shown) [compound 229]	0.05 to 0.25 µM	0.01 to 0.05 µM
Cc1cccc(C(Cc2ccc3c(c2)CCC(=O)N3)c2c[nH]cn2)c1C (stereo not shown) [compound 230]	< 0.01 µM	0.01 to 0.05 µM
Cc1cccc(C(Cc2ccc(C(=O)NC3CCOCC3)c(O)c2)c2c[nH]cn2)c1C (stereo not shown) [compound 233]	0.01 to 0.05 µM	0.01 to 0.05 µM
Cc1cccc(C(Cc2ccc3c(c2)OCCN3)c2c[nH]cn2)c1C (stereo not shown) [compound 235]	< 0.01 µM	0.01 to 0.05 µM
CNC(=O)Nc1ccc(CC(c2c[nH]cn2)c2cccc(C)c2C)cc1 (stereo not shown) [compound 237]	< 0.01 µM	0.01 to 0.05 µM
Cc1cccc(C(Cc2ccc(OCC(=O)O)cc2)c2c[nH]cn2)c1C (stereo not shown) [compound 239]	0.05 to 0.25 µM	0.01 to 0.05 µM
Cc1cccc(C(Cc2ccc(N3CCN(C)C3=O)cc2)c2c[nH]cn2)c1C (stereo not shown) [compound 243]	< 0.01 µM	< 0.01 µM
Cc1ccccc1C(Cc1ccc(C(N)=O)cc1)c1c[nH]cn1 (stereo not shown) [compound 244]	0.05 to 0.25 µM	0.05 to 0.25 µM
Cc1cccc(C(Cc2ccc(NC(=O)N(C)C3CCOC3)cc2)c2c[nH]cn2)c1C (stereo not shown) [compound 245]	< 0.01 µM	< 0.01 µM
Cc1cccc(C(Cc2ccc3c(c2)NCCN3)c2c[nH]cn2)c1C (stereo not shown) [compound 246]	0.01 to 0.05 µM	0.01 to 0.05 µM
CC(=O)Nc1ccc(CC(c2c[nH]cn2)c2cccc(C)c2C)c(F)c1 (stereo not shown) [compound 247]	< 0.01 µM	0.01 to 0.05 µM
CC(=O)Nc1ccc(CC(c2c[nH]cn2)c2cccc(C)c2C)cn1 (stereo not shown) [compound 248]	0.05 to 0.25 µM	0.01 to 0.05 µM
COc1ccccc1C(Cc1cccc(NS(C)(=O)=O)c1)N=C1NCCN1 (stereo not shown) [compound 505, N-{3-[2-(imidazolidin-2-ylideneamino)-2-(2-methoxyphenyl)ethyl]phenyl}methanesulfonamide]	< 0.01 µM	0.05 to 0.25 µM
COc1ccccc1C(Cc1cccc(NS(C)(=O)=O)c1)NC1=NCCO1 (stereo not shown) [compound 509]	< 0.01 µM	0.05 to 0.25 µM
CS(=O)(=O)Nc1cccc(CC(Oc2c(Cl)cccc2Cl)C2=NCCN2)c1 (stereo not shown) [compound 516]	0.05 to 0.25 µM	0.05 to 0.25 µM
CNS(=O)(=O)c1ccc(CC(Oc2c(Cl)cccc2Cl)C2=NCCN2)cc1 (stereo not shown) [compound 519]	0.01 to 0.05 µM	0.05 to 0.25 µM

Next, values leading:

Ki (α2AAR)	EC50 [1]	SMILES
< 0.01 µM	< 0.01 µM	Cc1cccc(C(Cc2ccc(NC(=O)CC3CCCCO3)cc2)c2c[nH]cn2)c1C (stereo not shown) [compound 169]
< 0.01 µM	< 0.01 µM	Cc1cccc(C(Cc2ccc(NC(=O)CC3CCOC3)cc2)c2c[nH]cn2)c1C (stereo not shown) [compound 171]
0.05 to 0.25 µM	0.01 to 0.05 µM	Cc1cccc(C(Cc2ccc(C(C)C(=O)O)cc2)c2c[nH]cn2)c1C (stereo not shown) [compound 174]
0.25 to 1 µM	0.01 to 0.05 µM	Cc1cccc(C(Cc2ccc(C(=O)O)cc2)c2c[nH]cn2)c1C (stereo not shown) [compound 175]
< 0.01 µM	< 0.01 µM	Cc1cccc(C(Cc2ccc(NC(=O)CC3CCCO3)cc2)c2c[nH]cn2)c1C (stereo not shown) [compound 176]
< 0.01 µM	< 0.01 µM	Cc1cccc(C(Cc2ccc(S(=O)(=O)NC3COC3)cc2)c2c[nH]cn2)c1C (stereo not shown) [compound 179]
< 0.01 µM	0.05 to 0.25 µM	Cc1cccc(C(Cc2ccc(NC(=O)CC3CCCCC3)cc2)c2c[nH]cn2)c1C (stereo not shown) [compound 181]
< 0.01 µM	0.01 to 0.05 µM	CC(=O)Nc1ccc(CC(c2c[nH]cn2)c2cccc(C)c2C)cc1F (stereo not shown) [compound 193]
< 0.01 µM	0.01 to 0.05 µM	COCC(=O)Nc1ccc(CC(c2c[nH]cn2)c2cccc(C)c2C)cc1 (stereo not shown) [compound 195]
< 0.01 µM	0.05 to 0.25 µM	Cc1cccc(C(Cc2ccc3c(c2)OCCO3)c2c[nH]cn2)c1C (stereo not shown) [compound 196]
0.05 to 0.25 µM	0.01 to 0.05 µM	Cc1cccc(C(Cc2ccc(C(=O)O)c(F)c2)c2c[nH]cn2)c1C (stereo not shown) [compound 197]
< 0.01 µM	0.01 to 0.05 µM	Cc1cccc(C(Cc2ccc(NC(=O)NC3CCOC3)cc2)c2c[nH]cn2)c1C (stereo not shown) [compound 198]
< 0.01 µM	0.01 to 0.05 µM	Cc1cccc(C(c2c[nH]cn2)c2cccc(-c3cnnn3C)c2F)c1C (stereo not shown) [compound 201]
0.05 to 0.25 µM	0.05 to 0.25 µM	Cc1cccc(C(Cc2ccc(C(=O)NS(=O)(=O)c3ccccc3)cc2)c2c[nH]cn2)c1C (stereo not shown) [compound 204]
0.05 to 0.25 µM	0.05 to 0.25 µM	Cc1cccc(C(Cc2ccc(CC(=O)O)cc2)c2c[nH]cn2)c1C (stereo not shown) [compound 206]
< 0.01 µM	0.01 to 0.05 µM	Cc1cccc(C(Cc2ccc(NC3CCOCC3)cc2)c2c[nH]cn2)c1C (stereo not shown) [compound 207]
< 0.01 µM	0.01 to 0.05 µM	Cc1cccc(C(Cc2ccc(-c3cnnn3C)cc2)c2c[nH]cn2)c1C (stereo not shown) [compound 209]

Ki (α2AAR)	EC50 [1]	SMILES
0.05 to 0.25 µM	0.01 to 0.05 µM	Cc1cccc(C(Cc2ccc(C(=O)O)c(O)c2)c2c[nH]cn2)c1C (stereo not shown) [compound 218]
< 0.01 µM	< 0.01 µM	Cc1cccc(C(c2cccc(-c3cnnn3C3CCOCC3)c2)c2c[nH]cn2)c1C (stereo not shown) [compound 220]
0.01 to 0.05 µM	0.01 to 0.05 µM	Cc1cccc(C(Cc2ccc(S(=O)(=O)O)cc2)c2c[nH]cn2)c1C (stereo not shown) [compound 221]
< 0.01 µM	< 0.01 µM	COc1ccc(CC(c2c[nH]cn2)c2cccc(C)c2C)cc1OC (stereo not shown) [compound 224]
< 0.01 µM	< 0.01 µM	Cc1cccc(C(Cc2ccc3c(c2)OCC(=O)N3)c2c[nH]cn2)c1C (stereo not shown) [compound 225]
0.01 to 0.05 µM	0.01 to 0.05 µM	Cc1cccc(C(Cc2ccc(C(C)c3nnn[nH]3)cc2)c2c[nH]cn2)c1C (stereo not shown) [compound 227]
< 0.01 µM	< 0.01 µM	Cc1cccc(C(Cc2ccc(N(C)C(=O)N(C)C)cc2)c2c[nH]cn2)c1C (stereo not shown) [compound 228]
0.01 to 0.05 µM	0.01 to 0.05 µM	CNc1cccc(CC(c2c[nH]cn2)c2cccc(C)c2C)c1 (stereo not shown) [compound 231]
< 0.01 µM	< 0.01 µM	Cc1cccc(C(Cc2ccc(S(C)(=O)=O)cc2)c2c[nH]cn2)c1C (stereo not shown) [compound 232]
< 0.01 µM	0.01 to 0.05 µM	Cc1cccc(C(Cc2ccc(NC(=O)C3CCO3)cc2)c2c[nH]cn2)c1C (stereo not shown) [compound 234]
0.05 to 0.25 µM	0.01 to 0.05 µM	Cc1cccc(C(Cc2ccc(C(=O)NCCC(=O)O)cc2)c2c[nH]cn2)c1C (stereo not shown) [compound 236]
0.01 to 0.05 µM	0.01 to 0.05 µM	Cc1cccc(C(Cc2ccc(-c3nnn(C)n3)cc2)c2c[nH]cn2)c1C (stereo not shown) [compound 241]
0.05 to 0.25 µM	0.01 to 0.05 µM	Cc1cccc(C(Cc2ccc(NC(=O)C3CCOCC3)nc2)c2c[nH]cn2)c1C (stereo not shown) [compound 242]
0.05 to 0.25 µM	0.01 to 0.05 µM	Cc1cccc(C(Cc2ccc(C(C)(C)C(=O)O)cc2)c2c[nH]cn2)c1C (stereo not shown) [compound 251]
< 0.01 µM	0.05 to 0.25 µM	CONC(=O)c1cccc(CC(NC2=NCCO2)c2ccccc2OC)c1 (stereo not shown) [compound 503, 3-[2-(4,5-dihydro-1,3-oxazol-2-ylamino)-2-(2-methoxyphenyl)ethyl]-N-methoxybenzamide]
< 0.01 µM	0.05 to 0.25 µM	CONC(=O)c1cccc(CC(NC2=NCCS2)c2cccc(Cl)c2)c1 (stereo not shown) [compound 506]
< 0.01 µM	0.05 to 0.25 µM	COc1ccccc1C(Cc1cccc(NS(=O)(=O)CC2CCOCC2)c1)NC1=NCCS1 (stereo not shown) [compound 515]

— patent publication US20240374573A1, “IMIDAZOLE CONTAINING COMPOUNDS, DERIVATIVES THEREFORE, AND USES THEREOF” (AglaeaPharma Inc., priority 2023, published 2024)
